# Source: PubChem BioAssay AID192 (DTP/NCI, 2004)
# Values joined by “and” are separate entries in the source; they are usually repeats but may differ in a detail not shown here. Identical values can stand only once. Toxic doses and inconclusive results are not listed.
# Tested on: BDF1 mice, B16 melanoma ip, median survival T/C
# Assay: NCI In Vivo Anticancer Drug Screen. Data for tumor model B16 Melanoma (intraperitoneal) in B6D2F1 (BDF1) mice
# Conditions: endpoint: median survival time, higher = longer survival
# How it was run: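 Each result divides a survival or tumor-size measurement in the compound-treated group by the same measurement in the vehicle group.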
# [1] = dose: 12.5 mg/kg/injection, schedule: Q01DX009 (ip), vehicle: Klucel (hydroxypropylcellulose) (HPC)
# [2] = dose: 25.0 mg/kg/injection, schedule: Q01DX009 (ip), vehicle: Klucel (hydroxypropylcellulose) (HPC)
# [3] = dose: 50.0 mg/kg/injection, schedule: Q01DX009 (ip), vehicle: Klucel (hydroxypropylcellulose) (HPC)
# [4] = dose: 100.0 mg/kg/injection, schedule: Q01DX009 (ip), vehicle: Klucel (hydroxypropylcellulose) (HPC)
# [5] = dose: 12.5 mg/kg/injection, schedule: Q01DX009 (ip), vehicle: saline with Tween-80
# [6] = dose: 25.0 mg/kg/injection, schedule: Q01DX009 (ip), vehicle: saline with Tween-80
# [7] = dose: 50.0 mg/kg/injection, schedule: Q01DX009 (ip), vehicle: saline with Tween-80
# [8] = dose: 100.0 mg/kg/injection, schedule: Q01DX009 (ip), vehicle: saline with Tween-80
# [9] = dose: 3.13 mg/kg/injection, schedule: Q01DX009 (ip), vehicle: saline with Tween-80
# [10] = dose: 6.25 mg/kg/injection, schedule: Q01DX009 (ip), vehicle: saline with Tween-80
# [11] = dose: 200.0 mg/kg/injection, schedule: Q01DX009 (ip), vehicle: saline with Tween-80
structure (smiles),measurement,setting,value
COC(=O)[C@@H]1c2cc3c(c(O)c2[C@@H](OC2OC(C)C(OC)C(C)(OC)C2OC)C[C@]1(C)O)C(=O)c1c(O)cc2c(c1C3=O)O[C@H]1O[C@]2(C)[C@H](O)[C@@H](N(C)C)[C@@H]1O (stereo partly drawn),T/C,"dose: 250.0 micrograms/kg/injection, schedule: Q01DX009 (ip), vehicle: other",171 % of control
same,T/C,"dose: 500.0 micrograms/kg/injection, schedule: Q01DX009 (ip), vehicle: other",171 % of control
same,T/C,"dose: 648.0 micrograms/kg/injection, schedule: Q04DX003 (ip), vehicle: lactic acid",100 % of control
same,T/C,"dose: 1080.0 micrograms/kg/injection, schedule: Q04DX003 (ip), vehicle: lactic acid",107 % of control and 121 % of control
same,T/C,"dose: 1800.0 micrograms/kg/injection, schedule: Q04DX003 (ip), vehicle: lactic acid",110 % of control
CC(C)CC(NC(=O)C(O)C(N)Cc1ccccc1)C(=O)O (stereo not drawn),T/C,"dose: 0.05 mg/kg/injection, schedule: Q01DX009 (oral), vehicle: saline",97 % of control
same,T/C,"dose: 0.5 mg/kg/injection, schedule: Q01DX009 (oral), vehicle: saline",97 % of control
same,T/C,"dose: 5.0 mg/kg/injection, schedule: Q01DX009 (oral), vehicle: saline",96 % of control
NC(=O)Nc1cc(NC(N)=O)cc(N(CCCl)CCCl)c1,T/C,"dose: 1.56 mg/kg/injection, schedule: Q01DX009 (ip), vehicle: Klucel (hydroxypropylcellulose) (HPC)",88 % of control
same,T/C,"dose: 3.13 mg/kg/injection, schedule: Q01DX009 (ip), vehicle: Klucel (hydroxypropylcellulose) (HPC)",101 % of control
same,T/C,"dose: 6.25 mg/kg/injection, schedule: Q01DX009 (ip), vehicle: Klucel (hydroxypropylcellulose) (HPC)",91 % of control
same,T/C,[1],96 % of control
same,T/C,[2],108 % of control
same,T/C,[3],98 % of control
CNc1nc2c(N)ncnc2n1C1OC(CO)C(O)C1O (stereo not drawn),T/C,"dose: 1.56 mg/kg/injection, schedule: Q01DX009 (ip), vehicle: saline",94 % of control
same,T/C,"dose: 3.12 mg/kg/injection, schedule: Q01DX009 (ip), vehicle: saline",90 % of control
same,T/C,"dose: 6.25 mg/kg/injection, schedule: Q01DX009 (ip), vehicle: saline",95 % of control
same,T/C,"dose: 12.5 mg/kg/injection, schedule: Q01DX009 (ip), vehicle: saline",101 % of control
same,T/C,"dose: 25.0 mg/kg/injection, schedule: Q01DX009 (ip), vehicle: saline",101 % of control
FC1(F)SC2C3CC(C4CCC=C43)C2C1(F)F (stereo not drawn),T/C,"dose: 0.39 mg/kg/injection, schedule: Q01DX009 (ip), vehicle: Klucel (hydroxypropylcellulose) (HPC)",89 % of control
same,T/C,"dose: 0.78 mg/kg/injection, schedule: Q01DX009 (ip), vehicle: Klucel (hydroxypropylcellulose) (HPC)",103 % of control
O=C(O)CC(NC(=O)CP(=O)(O)O)C(=O)O.[NH-]C1CCCCC1[NH-].[Pt+2] (stereo not drawn),T/C,"dose: 0.4 mg/kg/injection, schedule: Q01DX009 (ip), vehicle: dextrose",122 % of control
same,T/C,"dose: 0.78 mg/kg/injection, schedule: Q01DX009 (ip), vehicle: dextrose",154 % of control
same,T/C,"dose: 1.56 mg/kg/injection, schedule: Q01DX009 (ip), vehicle: dextrose",165 % of control
same,T/C,"dose: 3.0 mg/kg/injection, schedule: Q01DX009 (ip), vehicle: dextrose",123 % of control
same,T/C,"dose: 3.2 mg/kg/injection, schedule: Q01DX009 (ip), vehicle: dextrose",163 % of control
O=S(=O)(SC(S(=O)(=O)c1ccccc1)S(=O)(=O)c1ccccc1)c1ccccc1,T/C,[1],99 % of control
same,T/C,[2],99 % of control
same,T/C,[3],105 % of control
same,T/C,[4],107 % of control
same,T/C,"dose: 200.0 mg/kg/injection, schedule: Q01DX009 (ip), vehicle: Klucel (hydroxypropylcellulose) (HPC)",90 % of control
C/C=C/c1cc2c(c(=O)o1)C(=O)[C@@H](O)[C@H](C)O2,T/C,[5],95 % of control
same,T/C,[6],90 % of control
same,T/C,[7],95 % of control
same,T/C,[8],110 % of control
COC(=O)c1cc2cc3c(c(O)c2c(=O)o1)OC1(Cc2c(O)c4c(c(O)c2O1)C(=O)C(OC)CC4=O)CC3O (stereo not drawn),T/C,[9],91 % of control
same,T/C,[10],91 % of control and 93 % of control
same,T/C,[5],86 % of control
same,T/C,[6],86 % of control and 88 % of control
O=C1c2ccccc2C(=O)c2c(NCCN3CCNCC3)ccc(NCCN3CCNCC3)c21,T/C,"dose: 8.0 mg/kg/injection, schedule: Q01DX009 (ip), vehicle: acid diluted with saline",106 % of control
same,T/C,"dose: 16.0 mg/kg/injection, schedule: Q01DX009 (ip), vehicle: acid diluted with saline",104 % of control
same,T/C,"dose: 32.0 mg/kg/injection, schedule: Q01DX009 (ip), vehicle: acid diluted with saline",104 % of control
same,T/C,"dose: 64.0 mg/kg/injection, schedule: Q01DX009 (ip), vehicle: acid diluted with saline",96 % of control
[CH3][Sn]([CH3])([CH3])[O]C(=O)CCl,T/C,"dose: 0.02 mg/kg/injection, schedule: Q01DX009 (ip), vehicle: saline",104 % of control
same,T/C,"dose: 0.05 mg/kg/injection, schedule: Q01DX009 (ip), vehicle: saline",107 % of control
same,T/C,"dose: 0.1 mg/kg/injection, schedule: Q01DX009 (ip), vehicle: saline",109 % of control
same,T/C,"dose: 0.19 mg/kg/injection, schedule: Q01DX009 (ip), vehicle: saline",104 % of control
same,T/C,"dose: 0.2 mg/kg/injection, schedule: Q01DX009 (ip), vehicle: saline",93 % of control
same,T/C,"dose: 0.75 mg/kg/injection, schedule: Q01DX009 (ip), vehicle: saline",104 % of control
CC(=O)OC1OC(=O)C(C)(C(C)=O)C1C (stereo not drawn),T/C,"dose: 2.5 mg/kg/injection, schedule: Q01DX009 (ip), vehicle: distilled water + alcohol",104 % of control
same,T/C,"dose: 5.0 mg/kg/injection, schedule: Q01DX009 (ip), vehicle: distilled water + alcohol",102 % of control
same,T/C,"dose: 10.0 mg/kg/injection, schedule: Q01DX009 (ip), vehicle: distilled water + alcohol",104 % of control
OCCc1ccccc1,T/C,"dose: 31.3 mg/kg/injection, schedule: Q01DX009 (ip), vehicle: saline with Tween-80",93 % of control
same,T/C,[7],100 % of control
same,T/C,"dose: 62.5 mg/kg/injection, schedule: Q01DX009 (ip), vehicle: saline with Tween-80",95 % of control
same,T/C,[8],97 % of control
same,T/C,"dose: 125.0 mg/kg/injection, schedule: Q01DX009 (ip), vehicle: saline with Tween-80",100 % of control
same,T/C,[11],105 % of control
same,T/C,"dose: 250.0 mg/kg/injection, schedule: Q01DX009 (ip), vehicle: saline with Tween-80",93 % of control
COC1/C=C\C=C(/C)C(=O)NC2=CC(=O)C(N)=C(CC(C)CC(OC)C(O)C(C)C=C(C)C1OC(N)=O)C2=O (stereo not drawn),T/C,"dose: 0.75 mg/kg/injection, schedule: Q01DX009 (ip), vehicle: saline with Tween-80",117 % of control
Cc1ccc(NC(=O)COc2ccc(Cl)cc2Cl)c([N+](=O)[O-])c1,T/C,"dose: 25.0 mg/kg/injection, schedule: Q01DX009 (ip), vehicle: carboxymethylcellulose (CMC)",100 % of control
same,T/C,"dose: 50.0 mg/kg/injection, schedule: Q01DX009 (ip), vehicle: carboxymethylcellulose (CMC)",100 % of control
same,T/C,[4],88 % of control
same,T/C,"dose: 100.0 mg/kg/injection, schedule: Q01DX009 (ip), vehicle: carboxymethylcellulose (CMC)",100 % of control
O=C(O)CCC1CCC(=O)OC1=O (stereo not drawn),T/C,"dose: 100.0 mg/kg/injection, schedule: Q01DX009 (ip), vehicle: saline",112 % of control
same,T/C,"dose: 200.0 mg/kg/injection, schedule: Q01DX009 (ip), vehicle: saline",113 % of control
same,T/C,"dose: 400.0 mg/kg/injection, schedule: Q01DX009 (ip), vehicle: saline",113 % of control
ClCCCCCCCCCCc1ccccc1,T/C,[1],90 % of control
same,T/C,[2],90 % of control
same,T/C,[3],89 % of control
O=C(N/N=C/c1cccc(S(=O)(=O)O)c1)c1ccncc1,T/C,[8],99 % of control
same,T/C,[11],100 % of control
same,T/C,"dose: 400.0 mg/kg/injection, schedule: Q01DX009 (ip), vehicle: saline with Tween-80",103 % of control
CN(C)N=C1CCCC1,T/C,"dose: 16.5 mg/kg/injection, schedule: Q04DX003 (ip), vehicle: saline",107 % of control
same,T/C,"dose: 25.0 mg/kg/injection, schedule: Q04DX003 (ip), vehicle: saline",115 % of control
same,T/C,"dose: 37.5 mg/kg/injection, schedule: Q04DX003 (ip), vehicle: saline",112 % of control
CC(=O)Oc1cc2c3c(c1)CCCN3CCC2,T/C,[9],90 % of control
same,T/C,[10],90 % of control
same,T/C,"dose: 15.0 micrograms/kg/injection, schedule: Q01DX009 (ip), vehicle: saline",104 % of control
same,T/C,"dose: 30.0 micrograms/kg/injection, schedule: Q01DX009 (ip), vehicle: saline",97 % of control
same,T/C,"dose: 60.0 micrograms/kg/injection, schedule: Q01DX009 (ip), vehicle: saline",93 % of control
same,T/C,"dose: 250.0 micrograms/kg/injection, schedule: Q01DX009 (ip), vehicle: saline with Tween-80",86 % of control
same,T/C,"dose: 500.0 micrograms/kg/injection, schedule: Q01DX009 (ip), vehicle: saline with Tween-80",86 % of control
